Results reported in patent US8124793B2, “Derivatives of ethylene methanedisulfonate as cancer chemotherapeutic agents” (priority 2007, dated 2012).

What was measured:
CCRF-CEM = assay: NCI screen, growth of human tumor cells: Leukemia CCRF-CEM; assay type: cell-based; conditions: CCRF-CEM (Leukemia), 10^−4 molar
Summary of the method: (§1)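 NCI screening: compound applied to tumor cell lines at a given molar concentration, growth measured as percent. Minimum 60 data points/compound; cancer type noted.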

HL-60 (TB) = assay: NCI screen, growth of human tumor cells: Leukemia HL-60 (TB); assay type: cell-based; conditions: HL-60 (TB) (Leukemia), 10^−4 molar
Method: (§2) In the NCI screening process, each compound was tested and described by a minimum of 60 data points. The test data include, but are not limited to the type of cancer, the molar concentration used in the screen, and the percent growth of the cancer. In some cases, NMR and elemental analysis were used for structural assignment.

K562 = assay: NCI screen, growth of human tumor cells: Leukemia K562; assay type: cell-based; conditions: K562 (Leukemia), 10^−4 molar
Summary of the method: as §1

MOLT-4 = assay: NCI screen, growth of human tumor cells: Leukemia MOLT-4; assay type: cell-based; conditions: MOLT-4 (Leukemia), 10^−4 molar
Summary of the method: as §1

RPMI-8226 = assay: NCI screen, growth of human tumor cells: Leukemia RPMI-8226; assay type: cell-based; conditions: RPMI-8226 (Leukemia), 10^−4 molar
Summary of the method: as §1

AS49/ATCC = assay: NCI screen, growth of human tumor cells: Non-Small Cell Lung AS49/ATCC; assay type: cell-based; conditions: AS49/ATCC (Non-Small Cell Lung), 10^−4 molar
Summary of the method: as §1

HOP-62 = assay: NCI screen, growth of human tumor cells: Non-Small Cell Lung HOP-62; assay type: cell-based; conditions: HOP-62 (Non-Small Cell Lung), 10^−4 molar
Summary of the method: as §1

NCI-H522 = assay: NCI screen, growth of human tumor cells: Non-Small Cell Lung NCI-H522; assay type: cell-based; conditions: NCI-H522 (Non-Small Cell Lung), 10^−4 molar
Summary of the method: as §1

NCI-H460 = assay: NCI screen, growth of human tumor cells: Non-Small Cell Lung NCI-H460; assay type: cell-based
Summary of the method: as §1

HCT-116 = assay: NCI screen, growth of human tumor cells: Colon Cancer HCT-116; assay type: cell-based; conditions: HCT-116 (Colon Cancer), 10^−4 molar
Summary of the method: as §1

HCT-15 = assay: NCI screen, growth of human tumor cells: Colon Cancer HCT-15; assay type: cell-based; conditions: HCT-15 (Colon Cancer), 10^−4 molar
Summary of the method: as §1

HT29 = assay: NCI screen, growth of human tumor cells: Colon Cancer HT29; assay type: cell-based; conditions: HT29 (Colon Cancer), 10^−4 molar
Summary of the method: as §1

KM12 = assay: NCI screen, growth of human tumor cells: Colon Cancer KM12; assay type: cell-based; conditions: KM12 (Colon Cancer), 10^−4 molar
Summary of the method: as §1

SF-268 = assay: NCI screen, growth of human tumor cells: CNS Cancer SF-268; assay type: cell-based; conditions: SF-268 (CNS Cancer), 10^−4 molar
Summary of the method: as §1

SF-295 = assay: NCI screen, growth of human tumor cells: CNS Cancer SF-295; assay type: cell-based; conditions: SF-295 (CNS Cancer), 10^−4 molar
Summary of the method: as §1

SF-539 = assay: NCI screen, growth of human tumor cells: CNS Cancer SF-539; assay type: cell-based; conditions: SF-539 (CNS Cancer), 10^−4 molar
Summary of the method: as §1

SNB-75 = assay: NCI screen, growth of human tumor cells: CNS Cancer SNB-75; assay type: cell-based
Summary of the method: as §1

LOXIMVI = assay: NCI screen, growth of human tumor cells: Melanoma LOXIMVI; assay type: cell-based; conditions: LOXIMVI (Melanoma), 10^−4 molar
Summary of the method: as §1

M14 = assay: NCI screen, growth of human tumor cells: Melanoma M14; assay type: cell-based; conditions: M14 (Melanoma), 10^−4 molar
Summary of the method: as §1

SK-MEL-5 = assay: NCI screen, growth of human tumor cells: Melanoma SK-MEL-5; assay type: cell-based; conditions: SK-MEL-5 (Melanoma), 10^−4 molar
Summary of the method: as §1

UACC-257 = assay: NCI screen, growth of human tumor cells: Melanoma UACC-257; assay type: cell-based; conditions: UACC-257 (Melanoma), 10^−4 molar
Summary of the method: as §1

UACC-62 = assay: NCI screen, growth of human tumor cells: Melanoma UACC-62; assay type: cell-based; conditions: UACC-62 (Melanoma), 10^−4 molar
Summary of the method: as §1

IGROVI = assay: NCI screen, growth of human tumor cells: Ovarian Cancer IGROVI; assay type: cell-based; conditions: IGROVI (Ovarian Cancer), 10^−4 molar
Summary of the method: as §1

SK-OV-3 = assay: NCI screen, growth of human tumor cells: Ovarian Cancer SK-OV-3; assay type: cell-based; conditions: SK-OV-3 (Ovarian Cancer), 10^−4 molar
Summary of the method: as §1

OVCAR-3 = assay: NCI screen, growth of human tumor cells: Ovarian Cancer OVCAR-3; assay type: cell-based; conditions: OVCAR-3 (Ovarian Cancer), 10^−4 molar
Summary of the method: as §1

OVCAR-4 = assay: NCI screen, growth of human tumor cells: Ovarian Cancer OVCAR-4; assay type: cell-based; conditions: OVCAR-4 (Ovarian Cancer), 10^−4 molar
Summary of the method: as §1

OVCAR-8 = assay: NCI screen, growth of human tumor cells: Ovarian Cancer OVCAR-8; assay type: cell-based; conditions: OVCAR-8 (Ovarian Cancer), 10^−4 molar
Summary of the method: as §1

786-0 = assay: NCI screen, growth of human tumor cells: Renal Cancer 786-0; assay type: cell-based; conditions: 786-0 (Renal Cancer), 10^−4 molar
Summary of the method: as §1

ACHN = assay: NCI screen, growth of human tumor cells: Renal Cancer ACHN; assay type: cell-based; conditions: ACHN (Renal Cancer), 10^−4 molar
Summary of the method: as §1

RXF-393 = assay: NCI screen, growth of human tumor cells: Renal Cancer RXF-393; assay type: cell-based; conditions: RXF-393 (Renal Cancer), 10^−4 molar
Summary of the method: as §1

SN12C = assay: NCI screen, growth of human tumor cells: Renal Cancer SN12C; assay type: cell-based; conditions: SN12C (Renal Cancer), 10^−4 molar
Summary of the method: as §1

CAKI-1 = assay: NCI screen, growth of human tumor cells: Renal Cancer CAKI-1; assay type: cell-based; conditions: CAKI-1 (Renal Cancer), 10^−4 molar
Summary of the method: as §1

UO-31 = assay: NCI screen, growth of human tumor cells: Renal Cancer UO-31; assay type: cell-based; conditions: UO-31 (Renal Cancer), 10^−4 molar
Summary of the method: as §1

DU-145 = assay: NCI screen, growth of human tumor cells: Prostate Cancer DU-145; assay type: cell-based; conditions: DU-145 (Prostate Cancer), 10^−4 molar
Summary of the method: as §1

MCF 7 = assay: NCI screen, growth of human tumor cells: Breast Cancer MCF 7; assay type: cell-based; conditions: MCF 7 (Breast Cancer), 10^−4 molar
Summary of the method: as §1

MCF7/ADR-RES = assay: NCI screen, growth of human tumor cells: Breast Cancer MCF7/ADR-RES; assay type: cell-based; conditions: MCF7/ADR-RES (Breast Cancer), 10^−4 molar
Summary of the method: as §1

HS 578T = assay: NCI screen, growth of human tumor cells: Breast Cancer HS 578T; assay type: cell-based; conditions: HS 578T (Breast Cancer), 10^−4 molar
Summary of the method: as §1

MDA-N = assay: NCI screen, growth of human tumor cells: Breast Cancer MDA-N; assay type: cell-based; conditions: 10^−4 molar
Method: as §2

human cancer cells = assay: NCI screen summary over the cancers tested (negative growth of human cancer cells); assay type: cell-based; conditions: 10^−4 M conc.; cancers with negative growth / cancers tested
Method: as §2
The derivatives in the tables are grouped using the same category as in the tables 1-6.

SMILES: O=S1(=O)OCCOS(=O)(=O)C1C1c2ccccc2-c2ccccc21 [NSC 686562, ethylene 9-fluorenylmethanedisulfonate]
- percent of growth of human tumor cells (CCRF-CEM): −3%
- percent of growth of human tumor cells (HL-60 (TB)): −20%
- percent of growth of human tumor cells (K562): 16%
- percent of growth of human tumor cells (MOLT-4): −32%
- percent of growth of human tumor cells (RPMI-8226): 9%
- percent of growth of human tumor cells (AS49/ATCC): 30%
- percent of growth of human tumor cells (HOP-62): 5%
- percent of growth of human tumor cells (NCI-H522): −19%
- % Growth (NCI-H460; NCI-H460, 10^−4 molar): −50%
- % Growth (NCI-H460; NCI-H460, 10^−5 molar): 56%
- percent of growth of human tumor cells (HCT-116): 0%
- percent of growth of human tumor cells (HCT-15): 15%
- percent of growth of human tumor cells (HT29): 26%
- percent of growth of human tumor cells (KM12): 22%
- percent of growth of human tumor cells (SF-268): 29%
- percent of growth of human tumor cells (SF-295): 22%
- percent of growth of human tumor cells (SF-539): 10%
- % Growth (SNB-75; SNB-75, 10^−4 molar): −28%
- % Growth (SNB-75; SNB-75, 10^−5 molar): 28%
- % Growth (SNB-75; SNB-75, 10^−6 molar): 64%
- percent of growth of human tumor cells (LOXIMVI): −27%
- percent of growth of human tumor cells (M14): 23%
- percent of growth of human tumor cells (SK-MEL-5): 4%
- percent of growth of human tumor cells (UACC-257): 28%
- percent of growth of human tumor cells (UACC-62): 10%
- percent of growth of human tumor cells (IGROVI): 16%
- percent of growth of human tumor cells (SK-OV-3): 25%
- percent of growth of human tumor cells (OVCAR-3): 25%
- percent of growth of human tumor cells (OVCAR-4): −39%
- percent of growth of human tumor cells (OVCAR-8): 29%
- percent of growth of human tumor cells (786-0): 2%
- percent of growth of human tumor cells (ACHN): 9%
- percent of growth of human tumor cells (RXF-393): 25%
- percent of growth of human tumor cells (SN12C): 28%
- percent of growth of human tumor cells (CAKI-1): −1%
- percent of growth of human tumor cells (UO-31): −3%
- percent of growth of human tumor cells (DU-145): 9%
- percent of growth of human tumor cells (MCF 7): 23%
- percent of growth of human tumor cells (MCF7/ADR-RES): −7%
- percent of growth of human tumor cells (HS 578T): 24%
- percent of growth of human tumor cells (MDA-N): 17%
- Percentage of cancers showing negative growth cancers tested (human cancer cells): 10^−4 M conc. = 11/38 = 29%
- melting point: 118 to 124 °C
